Data taken from patent US9181236B2, “2-spiro-substituted iminothiazines and their mono-and dioxides as bace inhibitors, compositions and their use” (Merck Sharp & Dohme Corp., priority 2011, dated 2015).

Molecular target: soluble human BACE1 catalytic domain (Homo sapiens (Human), UniProt P56817)
Experiment: BACE1 HTRF FRET Assay
Assay type: biochemical
Details: Ki calculated from IC50 using the Cheng-Prusoff equation
From the text: A homogeneous time-resolved FRET assay can be used to determine IC50 values for inhibitors of the soluble human BACE1 catalytic domain. This assay monitors the increase of 620 nm fluorescence that resulted from BACE1 cleavage of an APPswedish APP^swe mutant peptide FRET substrate (QSY7-[…]-Europium-amide). This substrate contains an N-terminal QSY7 moiety that serves as a quencher of the C-terminal Europium fluorophore (620 nm Em). In the absence of enzyme activity, 620 nm fluorescence is low in the assay and increased linearly over 3 hours in the presence of uninhibited BACE1 enzyme Inhibition of BACE1 cleavage of the QSY7-APP^swe-Eu substrate by inhibitors is manifested as a suppression of 620 nm fluorescence.
Reactions are initiated by addition of 10 μl of 600 nM QSY7-APP^swe-Eu substrate (200 nM final) to give a final reaction volume of 30 μl in a 384 well Nunc HTRF plate. The reactions are incubated at 30° C. for 1.5 hours. The 620 nm fluorescence is then read on a Rubystar HTRF plate reader (BMG Labtechnologies) using a 50 millisecond delay followed by a 400 millisecond acquisition time window Inhibitor IC50 values are derived from non-linear regression analysis of concentration response curves.

Sequence of soluble human BACE1 catalytic domain (P56817 75-416): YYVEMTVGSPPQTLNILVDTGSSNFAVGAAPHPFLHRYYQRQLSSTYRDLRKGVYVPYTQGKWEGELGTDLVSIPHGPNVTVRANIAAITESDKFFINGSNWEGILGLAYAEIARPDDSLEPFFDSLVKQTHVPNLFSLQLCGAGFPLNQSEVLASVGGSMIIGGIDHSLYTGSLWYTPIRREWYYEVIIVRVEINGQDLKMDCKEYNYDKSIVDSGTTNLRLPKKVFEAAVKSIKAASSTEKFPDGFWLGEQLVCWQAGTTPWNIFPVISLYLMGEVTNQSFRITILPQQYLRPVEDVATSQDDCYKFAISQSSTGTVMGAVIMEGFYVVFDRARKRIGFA

Structure (SMILES) | Ki [nM]
C[C@@]1(c2cc(NC(=O)c3ncc(Cl)cc3Cl)ccc2F)CS(=O)(=O)C2(CCCC2)C(=N)N1 [Example 18] | 2.7
C[C@@]1(c2sc(-c3ccnc(-c4ccccc4)c3)cc2Cl)CS(=O)(=O)[C@@]2(CCOC2)C(=N)N1 [Example 63k] | 849
CC(C)(O)c1cncc(-c2cc(Cl)c([C@]3(C)CS(=O)(=O)[C@]4(CCOC4)C(=N)N3)s2)c1 [Example 62m] | 2420
C[C@@]1(c2sc(C(=O)NCc3cnoc3)cc2Cl)CS(=O)(=O)C2(CCCCC2)C(=N)N1 [Example 80] | 249
C[C@@]1(c2cc(NC(=O)c3ncc(Cl)cc3F)ccc2F)CS(=O)(=O)C2(CCOCC2)C(=N)N1 [Example 35a] | 6.5
C[C@@]1(c2sc(-c3cncnc3)cc2Cl)CS(=O)(=O)C2(CCC2)C(=N)N1 [Example 60] | 374
C[C@@]1(c2sc(-c3ccnc(-c4ccoc4)c3)cc2Cl)CS(=O)(=O)[C@@]2(CCOC2)C(=N)N1 [Example 63l] | 674
C[C@@]1(c2sc(-c3cccc(-c4nnco4)c3)cc2Cl)CS(=O)(=O)C2(CCOCC2)C(=N)N1 [Example 57a] | 34.9
C[C@@]1(c2sc(-c3ccnc(-c4cccs4)c3)cc2Cl)CS(=O)(=O)[C@@]2(CCOC2)C(=N)N1 [Example 63m] | 986
C[C@@]1(c2sc(-c3cncnc3)cc2Cl)CS(=O)(=O)C2(CCOCC2)C(=N)N1 [Example 51] | 688
COc1cccc2cc(-c3ccc(F)c([C@]4(C)CS(=O)(=O)C5(CCCC5)C(=N)N4)c3)n(C(=O)OC(C)(C)C)c12 [Example 39] | 1330
C[C@@]1(c2sc(-c3cccc(-c4nnco4)c3)cc2Cl)CS(=O)(=O)C2(CCCC2)C(=N)N1 [Example 43a] | 37
C[C@@]1(c2sc(-c3cncc(F)c3)cc2Cl)CS(=O)(=O)C2(CCOCC2)C(=N)N1 [Example 55] | 260
C[C@@]1(c2cc(-n3cc(-c4cccnc4)nn3)ccc2F)CS(=O)(=O)C2(CCC2)C(=N)N1 [Example 39b] | 8560
C[C@@]1(c2cc(-c3cccc(C#N)c3)ccc2F)CS(=O)(=O)C2(CCCC2)C(=N)N1 [Example 36] | 1290
C[C@@]1(c2cc(-n3cc(-c4ccccc4)nn3)ccc2F)CS(=O)(=O)C2(CCC2)C(=N)N1 [Example 39a] | 2320
CCc1cncc(-c2cc(Cl)c([C@]3(C)CS(=O)(=O)[C@@]4(CCOC4)C(=N)N3)s2)c1 [Example 63i] | 1780
C[C@@]1(c2cc(NC(=O)c3ncc(Cl)cc3Cl)ccc2F)CS(=O)(=O)C2(CCOCC2)C(=N)N1 [Example 31] | 4.1
C[C@@]1(c2cc(-c3cncc(C#N)c3)ccc2F)CS(=O)(=O)C2(CCCC2)C(=N)N1 [Example 38] | 939
C[C@@]1(c2sc(-c3cccc(N4CCCC4)c3)cc2Cl)CS(=O)(=O)C2(CCOCC2)C(=N)N1 [Example 56] | 5740
C[C@@]1(c2sc(-c3cncnc3)cc2Cl)CS(=O)(=O)C2(CCCC2)C(=N)N1 [Example 43] | 73.1
C[C@@]1(c2sc(-c3cncnc3)cc2Cl)CS(=O)(=O)C2(CCCCC2)C(=N)N1 [Example 47] | 545
C[C@@]1(c2cc(NC(=O)C3CC3)ccc2F)CS(=O)(=O)[C@]2(CCOC2)C(=N)N1 [Example 81] | 5170
COc1cncc(-c2cc(Cl)c([C@]3(C)CS(=O)(=O)C4(CCOCC4)C(=N)N3)s2)c1 [Example 53] | 555

Now from value to molecule:

Ki [nM] | Structure (SMILES)
588 | C[C@@]1(c2sc(C(=O)NCc3ccc(F)cc3)cc2Cl)CS(=O)(=O)C2(CCCCC2)C(=N)N1 [Example 80e]
207 | COc1cccc(NC(=O)c2cc(Cl)c([C@]3(C)CS(=O)(=O)C4(CCCCC4)C(=N)N3)s2)n1 [Example 80l]
313 | CC(F)(F)C(=O)Nc1ccc(F)c([C@]2(C)CS(=O)(=O)[C@]3(CCOC3)C(=N)N2)c1 [Example 81ad]
1400 | C[C@@]1(c2cc(NC(=O)[C@H]3CCCO3)ccc2F)CS(=O)(=O)[C@]2(CCOC2)C(=N)N1 [Example 81j]
717 | CCc1cccc(NC(=O)c2cc(Cl)c([C@]3(C)CS(=O)(=O)C4(CCCCC4)C(=N)N3)s2)n1 [Example 80m]
144 | C[C@@]1(c2sc(C(=O)NCc3cnsn3)cc2Cl)CS(=O)(=O)C2(CCCCC2)C(=N)N1 [Example 80a]
2010 | Cn1ccc(NC(=O)c2cc(Cl)c([C@]3(C)CS(=O)(=O)C4(CCCCC4)C(=N)N3)s2)n1 [Example 80j]
433 | C[C@@]1(c2cc(NC(=O)c3cscn3)ccc2F)CS(=O)(=O)[C@]2(CCOC2)C(=N)N1 [Example 81u]
108 | Cc1cnc(C(=O)Nc2ccc(F)c([C@]3(C)CS(=O)(=O)[C@]4(CCOC4)C(=N)N3)c2)cn1 [Example 81h]
1250 | C[C@@]1(c2cc(NC(=O)C3CC3(F)F)ccc2F)CS(=O)(=O)[C@]2(CCOC2)C(=N)N1 (stereo partly drawn) [Example 81s]
2360 | C[C@@]1(c2sc(C#CCN3CCOCC3)cc2Cl)CS(=O)(=O)C2(CCC2)C(=N)N1 [Example 77d]
304 | C[C@@]1(c2cc(NC(=O)c3ccc(OC(F)(F)F)cn3)ccc2F)CS(=O)(=O)[C@]2(CCOC2)C(=N)N1 [Example 81aa]
1940 | C[C@@]1(c2cc(NC(=O)c3cncs3)ccc2F)CS(=O)(=O)[C@]2(CCOC2)C(=N)N1 [Example 81t]
639 | C[C@@]1(c2cc(NC(=O)C(F)F)ccc2F)CS(=O)(=O)[C@]2(CCOC2)C(=N)N1 [Example 81n]
3710 | C[C@@]1(c2cc(NC(=O)C3CCC3(F)F)ccc2F)CS(=O)(=O)[C@]2(CCOC2)C(=N)N1 (stereo partly drawn) [Example 81o]
741 | C[C@@]1(c2cc(NC(=O)C3(C#N)CC3)ccc2F)CS(=O)(=O)[C@]2(CCOC2)C(=N)N1 [Example 81i]
5120 | C[C@@]1(c2sc(C(=O)NCc3cccc(F)c3)cc2Cl)CS(=O)(=O)C2(CCCCC2)C(=N)N1 [Example 80d]
1330 | Cc1cc(C(=O)Nc2ccc(F)c([C@]3(C)CS(=O)(=O)[C@]4(CCOC4)C(=N)N3)c2)no1 [Example 81af]
4180 | CC1(C(=O)Nc2ccc(F)c([C@]3(C)CS(=O)(=O)[C@]4(CCOC4)C(=N)N3)c2)COC1 [Example 81p]
429 | COCC(=O)Nc1ccc(F)c([C@]2(C)CS(=O)(=O)[C@]3(CCOC3)C(=N)N2)c1 [Example 81w]

Ki [nM] | Structure (SMILES)
41 | Cc1ccc(C(=O)Nc2ccc(F)c([C@]3(C)CS(=O)(=O)[C@]4(CCOC4)C(=N)N3)c2)nc1 [Example 81y]
4150 | C[C@@]1(c2sc(C(=O)NCc3ccncn3)cc2Cl)CS(=O)(=O)C2(CCCCC2)C(=N)N1 [Example 80c]
2160 | Cc1cncc(NC(=O)c2cc(Cl)c([C@]3(C)CS(=O)(=O)C4(CCCCC4)C(=N)N3)s2)c1 [Example 80g]
26 | C[C@@]1(c2cc(NC(=O)c3ncc(F)cc3F)ccc2F)CS(=O)(=O)[C@]2(CCOC2)C(=N)N1 [Example 81k]
488 | C[C@@]1(c2cc(NC(=O)C3CCO3)ccc2F)CS(=O)(=O)[C@]2(CCOC2)C(=N)N1 (stereo partly drawn) [Example 81d]
3170 | C[C@@]1(c2cc(NC(=O)c3ccc(S(C)(=O)=O)cn3)ccc2F)CS(=O)(=O)[C@]2(CCOC2)C(=N)N1 [Example 81z]
851 | C[C@@]1(c2sc(C(=O)NCc3ccc(C#N)cc3)cc2Cl)CS(=O)(=O)C2(CCCCC2)C(=N)N1 [Example 80f]
5.7 | C[C@@]1(c2cc(NC(=O)c3ncc(Cl)cc3C#N)ccc2F)CS(=O)(=O)[C@]2(CCOC2)C(=N)N1 [Example 81ag]
300 | C[C@@]1(c2cc(NC(=O)c3ccno3)ccc2F)CS(=O)(=O)[C@]2(CCOC2)C(=N)N1 [Example 81b]
41 | C[C@@]1(c2sc(C(=O)NCc3cnn4ccccc34)cc2Cl)CS(=O)(=O)C2(CCCCC2)C(=N)N1 [Example 80b]
998 | CC1(C(=O)Nc2ccc(F)c([C@]3(C)CS(=O)(=O)[C@]4(CCOC4)C(=N)N3)c2)CC1 [Example 81e]
105 | C[C@@]1(c2sc(C#CCCNS(C)(=O)=O)cc2Cl)CS(=O)(=O)C2(CCC2)C(=N)N1 [Example 77c]
180 | C[C@@]1(c2cc(NC(=O)c3cocn3)ccc2F)CS(=O)(=O)[C@]2(CCOC2)C(=N)N1 [Example 81c]
3170 | C[C@@]1(c2cc(NC(=O)CC(F)(F)F)ccc2F)CS(=O)(=O)[C@]2(CCOC2)C(=N)N1 [Example 81r]
904 | COc1ccc(C(=O)Nc2ccc(F)c([C@]3(C)CS(=O)(=O)[C@]4(CCOC4)C(=N)N3)c2)nn1 [Example 81ae]
2960 | C[C@@]1(c2cc(NC(=O)CC3CC3)ccc2F)CS(=O)(=O)[C@]2(CCOC2)C(=N)N1 [Example 81g]
146 | C[C@@]1(c2cc(NC(=O)c3ncccc3C(F)(F)F)ccc2F)CS(=O)(=O)[C@]2(CCOC2)C(=N)N1 [Example 81ab]
949 | CCC(=O)Nc1ccc(F)c([C@]2(C)CS(=O)(=O)[C@]3(CCOC3)C(=N)N2)c1 [Example 81l]
1520 | CC(=O)Nc1ccc(F)c([C@]2(C)CS(=O)(=O)[C@]3(CCOC3)C(=N)N2)c1 [Example 81x]

Same assay, conditions: read-out: BACE1 % Inh. at 10 μM

inhibition at 10 µM [%] | Structure (SMILES)
35 | CC(C)C(F)(F)c1ccc(C(=O)Nc2ccc(F)c([C@]3(C)CS(=O)(=O)[C@]4(CCOC4)C(=N)N3)c2)nc1 [Example 81ac]
15 | C[C@@]1(c2cc(NC(=O)C3CCOCC3)ccc2F)CS(=O)(=O)[C@]2(CCOC2)C(=N)N1 [Example 81q]
32 | Cc1ncc(NC(=O)c2cc(Cl)c([C@]3(C)CS(=O)(=O)C4(CCCCC4)C(=N)N3)s2)cn1 [Example 80h]
